Laboratory results reported in patent US20260174875A1 (Novo Nordisk A/S, priority 2023, published 2026).
Numbered stars: 1 amine (or outer) side, 2 acyl side, 3 side chain; on linkers, the order of the positions; unused ones are H or OH. Square brackets hold non-standard residues; d marks the D form. Side chains are listed from the residue outwards. * marks the point of attachment. C20 diacid = O=C(O)CCCCCCCCCCCCCCCCCCC(=O)*; C18 diacid = O=C(O)CCCCCCCCCCCCCCCCC(=O)*; γGlu = O=C(O)[C@H](CCC(=O)[*:2])N[*:1]; AEEA = NCCOCCOCC(=O)O; Aib = CC(C)(N)C(=O)O

Target: T1, human GLP-1 receptor (hGLP-1R) (Homo sapiens, UniProt P43220)
T1 construct: expressed in transfected cells
T1 sequence (P43220 24-463): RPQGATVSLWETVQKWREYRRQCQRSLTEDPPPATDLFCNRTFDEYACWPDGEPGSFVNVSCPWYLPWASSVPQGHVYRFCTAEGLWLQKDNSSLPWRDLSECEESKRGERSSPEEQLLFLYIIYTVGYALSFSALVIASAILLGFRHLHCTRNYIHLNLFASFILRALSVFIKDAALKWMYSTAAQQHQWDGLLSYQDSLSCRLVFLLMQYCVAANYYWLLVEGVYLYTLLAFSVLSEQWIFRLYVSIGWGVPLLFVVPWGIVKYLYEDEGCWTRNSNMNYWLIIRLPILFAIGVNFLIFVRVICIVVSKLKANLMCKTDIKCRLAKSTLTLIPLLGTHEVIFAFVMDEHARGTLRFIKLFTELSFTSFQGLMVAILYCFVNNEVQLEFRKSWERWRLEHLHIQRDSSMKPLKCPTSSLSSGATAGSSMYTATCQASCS
Test: GLP-1 receptor assay, method A (CRE-luciferase reporter, BHK cells)
Type: cell-based
Conditions: hGLP-1R Potency, 1% HSA, EC50, method A, in the presence of 1% HSA
Method: (§1) To assess how the activation of the receptors is potentially influenced by the presence of human serum albumin (HSA), the in vitro assays were performed in the absence of HSA and presence of 1% (w/v) HSA.
Cells at approximately 80-90% confluence were washed once in PBS (Gibco 14190-094) and loosened from the cell flasks with Versene (Gibco, 15040-033). […] Cells were aliquoted and stored at −180° C. until use.
(§2) The assay buffer consisted of DMEM without phenol red (Gibco, 11880-028) supplemented with 1× GlutaMAX (Gibco, 35050-038), 10 mM HEPES (Gibco, 15630-056), 1% (w/v) ovalbumin (Sigma, A5503) and 0.1% (v/v) Pluronic F-68 (Gibco, 24040-032) either with HSA or without HSA (Sigma, A9511).
Frozen stocks of hGLP-1R BHK CRE-Luc cells were thawed in a 37° C. water bath, washed once in PBS (Gibco 14190-094) and diluted to 1.5×10^6 (1.5E+6) cells/mL in assay buffer with or without 2% (w/v) HSA (Sigma, A9511). […] The assay plates were incubated for 3 hours at 37° C. in 5% CO2, left at room temperature for 5 minutes after which 100 μL steadylite Plus™ (PerkinElmer/Revvity, 6066759) was added to each well. Plates were sealed and incubated at room temperature with gentle shaking for 30 minutes while protected from light. Luminescence was detected on a luminescence plate reader e.g., a Synergy 2 (BioTek).

| Substance | EC50 |
| --- | --- |
| Y[Aib]EGTFTSDYSILLEEQAAREFIEWLLAGGPSSGAGQAPGQAPGASHLSTAQTQRLSAELHRLK([AEEA-AEEA-AEEA-γGlu-C18 diacid])TLPRTETGSGSP-NH2 [Compound 111] | 0.0348 nM |
| Y[Aib]EGTFTSDYSILLEEQAAREFIEWLLAGGPSSGAGQAPGQAPLASHLSTAQTARLSAELHK([AEEA-AEEA-γGlu-C18 diacid])LATLPRTETGSGSP-NH2 [Compound 98] | 0.0431 nM |

Same assay, conditions: hGLP-1R Potency, no HSA, EC50, method A, absence of HSA

| Substance | EC50 |
| --- | --- |
| Y[Aib]EGTFTSDYSILLEEQAAREFIEWLLAGGPSK([γGlu-C20 diacid])GAPPPSGGGEASELSTAALGRLSAELHRLADLPRTETGSGSP-NH2 [Compound 41] | 0.0408 nM |
| Y[Aib]EGTFTSDYSILLEEQAAREFIEWLLAGGPSSGAGQAPGQAPGASK([AEEA-AEEA-γGlu-C18 diacid])LSTAQTQRLSAELHRLATLPRTETGSGSP-NH2 [Compound 54] | 0.0288 nM |

Same assay, conditions: method A, absence of HSA; read-out: hGLP-1R Potency, no HSA, EC50

| Substance | EC50 |
| --- | --- |
| Y[Aib]EGTFTSDYSILLEEQAAREFIEWLLAGGPSSGAGQAPGQAPGASHLSTAQTQRLSAELHRLK([AEEA-AEEA-AEEA-γGlu-C18 diacid])TLPRTETGSGSP-NH2 [Compound 111] | 0.0159 nM |
| Y[Aib]EGTFTSDYSILLEEQAAREFIEWLLAGGPSSGAGQAPGQAPLASHLSTAQTARLSAELHK([AEEA-AEEA-γGlu-C18 diacid])LATLPRTETGSGSP-NH2 [Compound 98] | 0.0133 nM |

Target: T2, human GIP receptor (hGIPR) (Homo sapiens, UniProt P48546)
T2 construct: expressed in transfected cells
T2 sequence (P48546 22-466): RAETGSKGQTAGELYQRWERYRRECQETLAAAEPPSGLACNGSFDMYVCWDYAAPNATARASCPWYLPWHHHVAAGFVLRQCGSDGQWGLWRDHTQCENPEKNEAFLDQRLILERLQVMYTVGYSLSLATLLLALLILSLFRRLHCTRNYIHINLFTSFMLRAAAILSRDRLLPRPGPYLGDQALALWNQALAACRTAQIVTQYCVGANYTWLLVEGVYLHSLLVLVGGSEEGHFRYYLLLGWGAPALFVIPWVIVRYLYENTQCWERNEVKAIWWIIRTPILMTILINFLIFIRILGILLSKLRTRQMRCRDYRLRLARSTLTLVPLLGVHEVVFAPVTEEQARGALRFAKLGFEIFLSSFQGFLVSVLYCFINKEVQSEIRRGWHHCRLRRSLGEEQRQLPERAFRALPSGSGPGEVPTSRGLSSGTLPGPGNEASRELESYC
Test: GIP receptor assay, method A (CRE-luciferase reporter, BHK cells)
Type: cell-based
Conditions: hGIPR Potency, 1% HSA, EC50, method A, in the presence of 1% HSA
Method: To assess how the activation of the receptors is potentially influenced by the presence of human serum albumin (HSA), the in vitro assays were performed in the absence of HSA and presence of 1% (w/v) HSA. Unless stated otherwise the reference to the “GIP receptor assay as described in Example 4” throughout the specification shall refer to the described herein assay procedure method A (hGIPR assay) in the absence of HSA.
Activation of the human GIP receptor leads to increased intra-cellular concentrations of cyclic AMP (cAMP) and the consequent transcription activation from promoters containing multiple copies of the cAMP response element (CRE). It is thus possible to measure GIP receptor activity using a CRE-luciferase reporter gene introduced into Baby Hamster Kidney (BHK) cells co-expressing the human GIP receptor.
Cells at about 80-90% confluency were washed once with PBS (Gibco 14190-094) and detached from the cell flasks with Versene (Gibco, 15040-066). After centrifugation, the cells were counted, resuspended and diluted to approximately 1.5-3.0×10^6 (1.5E+6 to 3.0E+6) cells/mL in Recovery Cell Culture Freezing Medium (Gibco, 12648-010) and stored at −180° C. in suitable aliquots until use.
as §2
On the day before the assay hGIPR BHK Cre-Luc cells were thawed and plated out in 96 well Culture Plates (PerkinElmer/Revvity, 6005680) at 5.0×10^3 (5.0E+3) cells/well in growth medium as described above. The plates were then incubated for 21-23 hours at 37° C. with 5% CO2. On the day of the assay GLP-1-/GIP-/amylin-receptor tri-agonists or reference compounds were diluted in assay buffer using a 7-point, 10-fold titration plus a blank (absence of compound). Each compound was diluted and tested in duplicates in each experiment. In the plates containing the cells the growth medium was removed, and cells were washed twice with 100 μL PBS (Gibco 14190-094). 50 μL of the test compound dilutions were added to the plates containing cells preceded by 50 μL assay buffer with or without 2% (w/v) HSA (Sigma, A9511). The cell plates were incubated for 3 hours in a 5% CO2 incubator at 37° C. The plates were then transferred to room temperature followed by addition of 100 μL steadylite Plus™ (PerkinElmer/Revvity, 6066759). The plates were sealed and shaken for 30 minutes at room temperature while protected from light. Finally, luminescence (as an indicator of receptor activation) was measured on a Mithras reader (Berthold Technologies, DE). The EC50-values [pM] were calculated by non-linear curve fitting applying a four-parameter logistic model (Hill slope=“shared value for all datasets”) using GraphPad Prism (GraphPad Software, Boston, MA, USA).

| Substance | EC50 |
| --- | --- |
| Y[Aib]EGTFTSDYSILLEEQAAREFIEWLLAGGPSSGAGQAPGQAPGASHLSTAQTQRLSAELHRLK([AEEA-AEEA-AEEA-γGlu-C18 diacid])TLPRTETGSGSP-NH2 [Compound 111] | 0.0122 nM |
| Y[Aib]EGTFTSDYSILLEEQAAREFIEWLLAGGPSSGAGQAPGQAPLASHLSTAQTARLSAELHK([AEEA-AEEA-γGlu-C18 diacid])LATLPRTETGSGSP-NH2 [Compound 98] | 0.0112 nM |

Same assay, conditions: hGIPR Potency, no HSA, EC50, method A, absence of HSA

| Substance | EC50 |
| --- | --- |
| Y[Aib]EGTFTSDYSILLEEQAAREFIEWLLAGGPSK([γGlu-C20 diacid])GAPPPSGGGEASELSTAALGRLSAELHRLADLPRTETGSGSP-NH2 [Compound 41] | 0.00502 nM |
| Y[Aib]EGTFTSDYSILLEEQAAREFIEWLLAGGPSSGAGQAPGQAPGASK([AEEA-AEEA-γGlu-C18 diacid])LSTAQTQRLSAELHRLATLPRTETGSGSP-NH2 [Compound 54] | 0.00556 nM |

Same assay, conditions: method A, absence of HSA; read-out: hGIPR Potency, no HSA, EC50

| Substance | EC50 |
| --- | --- |
| Y[Aib]EGTFTSDYSILLEEQAAREFIEWLLAGGPSSGAGQAPGQAPGASHLSTAQTQRLSAELHRLK([AEEA-AEEA-AEEA-γGlu-C18 diacid])TLPRTETGSGSP-NH2 [Compound 111] | 0.00366 nM |
| Y[Aib]EGTFTSDYSILLEEQAAREFIEWLLAGGPSSGAGQAPGQAPLASHLSTAQTARLSAELHK([AEEA-AEEA-γGlu-C18 diacid])LATLPRTETGSGSP-NH2 [Compound 98] | 0.00258 nM |

Target: T3, human amylin receptor (hAMYR3) (Homo sapiens, UniProt O60896+P30988)
T3 construct: host or cells: BHK cells (Hollex-1 line expressing hCTR(a) and CRE-Luc), further transfected with human RAMP3
T3 sequence (P30988 25-474): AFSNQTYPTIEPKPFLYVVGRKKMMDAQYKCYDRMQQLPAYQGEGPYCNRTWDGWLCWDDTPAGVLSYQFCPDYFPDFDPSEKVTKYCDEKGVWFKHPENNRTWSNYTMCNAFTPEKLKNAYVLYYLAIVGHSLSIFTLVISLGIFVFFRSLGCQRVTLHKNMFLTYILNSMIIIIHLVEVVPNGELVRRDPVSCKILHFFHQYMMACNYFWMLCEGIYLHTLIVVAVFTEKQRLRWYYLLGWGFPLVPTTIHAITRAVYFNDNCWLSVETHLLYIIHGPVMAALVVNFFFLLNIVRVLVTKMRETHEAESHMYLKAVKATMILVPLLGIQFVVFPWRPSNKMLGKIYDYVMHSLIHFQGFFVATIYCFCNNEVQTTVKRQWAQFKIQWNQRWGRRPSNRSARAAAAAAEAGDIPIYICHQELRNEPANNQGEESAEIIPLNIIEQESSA
T3 sequence (O60896 24-148): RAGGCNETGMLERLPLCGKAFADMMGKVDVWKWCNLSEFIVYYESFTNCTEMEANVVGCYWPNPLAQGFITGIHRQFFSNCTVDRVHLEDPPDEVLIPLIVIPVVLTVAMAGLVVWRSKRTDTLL
Test: Amylin receptor assay, method A (CRE-luciferase reporter, BHK cells)
Type: cell-based
Conditions: hAMYR3 Potency, 1% HSA, EC50, method A, in the presence of 1% HSA
Method: as §1
It is thus possible to measure hAMYR3 activity using a CRE-luciferase reporter gene introduced into Baby Hamster Kidney (BHK) cells co-expressing the hAMYR3.
The cell line was further transfected with human receptor modifying protein 3 (RAMP3) using standard methods.
After centrifugation, the cell pellet was resuspended and diluted to approximately 2.5-4.0×10^6 (2.5E+6 to 4.0E+6) cells/mL in Recovery™ Cell Culture Freezing Medium (Gibco, 12648-010). Cells were aliquoted and stored at −180° C. until use.
as §2, with “15630-056) and” for “15630-056),”, “either with or without” for “and”, “24040-032) and” for “24040-032)”, “with” for “with HSA”
The plate was incubated over night at 37° C. in 5% CO2. […] Luminescence was detected on a luminescence plate reader e.g., a Synergy 2 (BioTek).

| Substance | EC50 |
| --- | --- |
| Y[Aib]EGTFTSDYSILLEEQAAREFIEWLLAGGPSSGAGQAPGQAPGASHLSTAQTQRLSAELHRLK([AEEA-AEEA-AEEA-γGlu-C18 diacid])TLPRTETGSGSP-NH2 [Compound 111] | 0.0664 nM |
| Y[Aib]EGTFTSDYSILLEEQAAREFIEWLLAGGPSSGAGQAPGQAPLASHLSTAQTARLSAELHK([AEEA-AEEA-γGlu-C18 diacid])LATLPRTETGSGSP-NH2 [Compound 98] | 0.108 nM |

Same assay, conditions: hAMYR3 Potency, no HSA, EC50, method A, absence of HSA

| Substance | EC50 |
| --- | --- |
| Y[Aib]EGTFTSDYSILLEEQAAREFIEWLLAGGPSK([γGlu-C20 diacid])GAPPPSGGGEASELSTAALGRLSAELHRLADLPRTETGSGSP-NH2 [Compound 41] | 0.00672 nM |
| Y[Aib]EGTFTSDYSILLEEQAAREFIEWLLAGGPSSGAGQAPGQAPGASK([AEEA-AEEA-γGlu-C18 diacid])LSTAQTQRLSAELHRLATLPRTETGSGSP-NH2 [Compound 54] | 0.00302 nM |

Same assay, conditions: method A, absence of HSA; read-out: hAMYR3 Potency, no HSA, EC50

| Substance | EC50 |
| --- | --- |
| Y[Aib]EGTFTSDYSILLEEQAAREFIEWLLAGGPSSGAGQAPGQAPGASHLSTAQTQRLSAELHRLK([AEEA-AEEA-AEEA-γGlu-C18 diacid])TLPRTETGSGSP-NH2 [Compound 111] | 0.00333 nM |
| Y[Aib]EGTFTSDYSILLEEQAAREFIEWLLAGGPSSGAGQAPGQAPLASHLSTAQTARLSAELHK([AEEA-AEEA-γGlu-C18 diacid])LATLPRTETGSGSP-NH2 [Compound 98] | 0.0023 nM |
